What was measured:
[1] = molecular target: T1, FLT3 (Homo sapiens, UniProt P36888); experiment: Binding constant (Kd) measurement, phage-displayed kinase competition binding assay; conditions: for Binding Assay: FLT3(DKIN) / Kd: FLT3(DKIN) construct; for Binding Assay: FLT3(JMminus): FLT3(JMminus) construct
T1 construct: FLT3(DKIN); made in house
T1 sequence (P36888 610-943 limits assumed): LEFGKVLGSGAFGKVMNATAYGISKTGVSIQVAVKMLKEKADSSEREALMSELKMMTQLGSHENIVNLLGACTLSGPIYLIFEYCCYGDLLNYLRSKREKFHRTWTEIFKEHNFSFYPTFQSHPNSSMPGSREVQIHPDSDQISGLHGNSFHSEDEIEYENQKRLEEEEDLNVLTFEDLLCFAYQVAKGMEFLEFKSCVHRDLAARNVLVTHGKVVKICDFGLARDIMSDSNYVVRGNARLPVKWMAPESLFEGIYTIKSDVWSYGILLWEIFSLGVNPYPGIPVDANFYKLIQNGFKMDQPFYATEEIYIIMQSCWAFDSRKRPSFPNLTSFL
Description: Binding Constant (Kd) Measurements for Small-Molecule-Kinase Interactions
The term “ND” represents non-determined values.

[2] = tested on: MV4,11 cells; experiment: FLT3 assay using MV4,11 cells (cellular proliferation, MTS); format: cell-based, human; conditions: cell assay code CS0001
Description: The ability of FLT3 kinase inhibitors to inhibit cellular proliferation was also examined. MV4:11 was a cell line derived from a patient with acute myelogenous leukemia.
FLT3 Assay Using MV4,11 Cells
MV4,11 cells were grown in an incubator @ 37° C. in 5% CO2 in Medium 2 (RPMI, 10% FBS, 4 mM glutamine, Penn/Strep). The cells were counted daily and the cell density was kept between 1e5 and 8e5 cells/ml.
Day One: Enough cells were harvested for experiments to be conducted in 50 ml conical tubes. The harvested cells were spun at 500 g for 5 min at 4° C., the supernatant was then aspirated and the cells were resuspended in the starting volume of 1×PBS. The cells were again spun at 500 g for 5 min at 4° C. and the supernatant again aspirated. The cells were then resuspended in medium 3 (DMEM w/ glut, 10% FBS, Penn/Strep) to a density of 4e5 cells/ml and incubated (37° C. in 5% CO2 O/N.
Day Two: The cells were counted and enough medium 3 was added to decrease density to 2e5 cells/ml. 50 ul (10,000 cells) was aliquoted into each well of a 96 well optical plate using multichannel pipetman. The compound plate was then set up by aliquoting 3 μl of negative control (DMSO) into column 1 of a 96 well 300 ul polypropylene plate, aliquoting 3 μt of positive control (10 mM AB20121) into column 12 of plate, and aliquoting 3 μl of appropriate compounds from serial dilutions into columns 2-11. To each well, 150 μl of Medium 3 was added and 50 μl of compound/medium mixture from compound plate into rows of optical plate in duplicate. The cells were then incubated @ 37° C. in 5% CO2 for 3 days.
Day Five: MTS was thawed in a H2O bath. 20 μl of MTS was added to each well of optical plate and the cells were incubated (37° C. in 5% CO2 for 2 hours. The plate was then placed on a plate shaker for 30 seconds on high speed.

## CC(C)(C)c1cc(NC(=O)Nc2ccc(NC(=O)c3ccnc4ccccc34)cc2)no1 [Compound N141]
[1]
  Binding Assay: FLT3(DKIN): + + + +
[2]
  Cell Assay: CS0001:IC50: + + +

## Cc1cc(C)c(C(=O)Nc2ccc(NC(=O)Nc3cc(C(C)(C)C)on3)cc2)c(C)c1 [Compound N31]
[1]
  Binding Assay: FLT3(DKIN): + + +
[2]
  Cell Assay: CS0001:IC50: + +

## CC(C)(C)c1cc(NC(=O)Nc2ccc(OCCc3ccccn3)cc2)no1 [Compound G27]
[1]
  Binding Assay: FLT3(DKIN): + + + +
[2]
  Cell Assay: CS0001:IC50: + + +

## CC(C)(C)c1cc(NC(=O)Nc2ccc(NC(=O)Cc3noc4ccccc34)cc2)no1 [Compound N80]
[1]
  Binding Assay: FLT3(JMminus): + + +
[2]
  Cell Assay: CS0001:IC50: + + +

## CC(C)(C)c1cc(NC(=O)Nc2ccc(NC(=O)c3ccc(SC(F)(F)F)cc3)cc2)no1 [Compound N33]
[1]
  Binding Assay: FLT3(DKIN): + + +
[2]; Homo sapiens, MV4-11
  IC50: > 10 µM

## CC1CN(CCOc2ccc(NC(=O)Nc3cc(C(C)(C)C)on3)cc2)CC(C)O1 (stereo not drawn) [Compound G42]
[1]
  Binding Assay: FLT3(DKIN): + + +
[2]
  Cell Assay: CS0001:IC50: + +

## CC(C)(C)c1cc(NC(=O)Nc2ccc(OCCN3CCSCC3)cc2)no1 [Compound G53]
[1]
  Binding Assay: FLT3(DKIN): + + +
[2]
  Cell Assay: CS0001:IC50: + +

## CC(C)(C)c1cc(NC(=O)Nc2ccc(OCc3ccc(C(F)(F)F)cc3)cc2)no1 [Compound G6]
[1]
  Binding Assay: FLT3(DKIN): + + + +
[2]
  Cell Assay: CS0001:IC50: + + +

## CC(C)(C)c1cc(NC(=O)Nc2ccc(NC(=O)c3cc4cccnc4nc3C(F)(F)F)cc2)no1 [Compound N61]
[1]
  Binding Assay: FLT3(DKIN): + + +
[2]
  Cell Assay: CS0001:IC50: + + +

## CC(C)(C)c1cc(NC(=O)Nc2ccc(OCc3ccccc3-c3ccccc3)cc2)no1 [Compound G8]
[1]
  Binding Assay: FLT3(DKIN): + + +
[2]
  Cell Assay: CS0001:IC50: + +

## CC(C)(C)c1cc(NC(=O)Nc2ccc(NC(=O)Cc3ccccc3)cc2)no1 [Compound N35]
[1]
  Binding Assay: FLT3(DKIN): + + +
[2]
  Cell Assay: CS0001:IC50: + +

## CC(C)(C)c1cc(NC(=O)Nc2ccc(NC(=O)c3cc(Cl)cc(Cl)c3)cc2)no1 [Compound N29]
[1]
  Binding Assay: FLT3(DKIN): + + +
[2]
  Cell Assay: CS0001:IC50: + + +

## CC(C)(C)c1cc(NC(=O)Nc2ccncc2)no1 [Compound A53]
[1]
  Binding Assay: FLT3(DKIN): + +
[2]
  Cell Assay: CS0001:IC50: + +

## CC(C)(C)c1cc(NC(=O)Nc2ccc(NC(=O)c3cccnc3)cc2)co1 [Compound N1]
[1]
  Binding Assay: FLT3(DKIN): + + + +
[2]
  Cell Assay: CS0001:IC50: + + +

## CC(C)(C)c1cc(NC(=O)Nc2ccc(NC(=O)C3=Cc4cc(F)cc(S(C)(=O)=O)c4C3)cc2)no1 [Compound N58]
[1]
  Binding Assay: FLT3(DKIN): + + +
[2]
  Cell Assay: CS0001:IC50: + + +

## Cc1cccnc1-c1noc(-c2ccc(NC(=O)Nc3cc(C(C)(C)C)on3)cc2)n1 [Compound P4]
[1]
  Binding Assay: FLT3(DKIN): + + + +
[2]
  Cell Assay: CS0001:IC50: + + + +

## Cn1nc(C(C)(C)C)cc1NC(=O)Nc1ccc(OCc2ccccc2)cc1 [Compound H2]
[1]
  Binding Assay: FLT3(DKIN): + + + +
[2]
  Cell Assay: CS0001:IC50: + + + +

## CC(C)(C)c1cc(NC(=O)Nc2ccc(NC(=O)c3ccc(Br)cc3)cc2)no1 [Compound N27]
[1]
  Binding Assay: FLT3(DKIN): + +
[2]
  Cell Assay: CS0001:IC50: + +

## Cc1ccc(-c2cc(C(=O)Nc3ccc(NC(=O)Nc4cc(C(C)(C)C)on4)cc3)c(C)o2)cc1 [Compound N120]
[1]
  Binding Assay: FLT3(DKIN): + + + +
[2]
  Cell Assay: CS0001:IC50: + + +

## COC(=O)c1cccc(COc2ccc(NC(=O)Nc3cc(C(C)(C)C)on3)cc2)c1 [Compound G7]
[1]
  Binding Assay: FLT3(DKIN): + + + +
[2]
  Cell Assay: CS0001:IC50: + + +

## CC(C)(C)c1cc(NC(=O)Nc2ccc(NC(=O)C3=Cc4cc(F)cc(S(C)(=O)=O)c4C3)cc2)no1 [Compound N62]
[1]
  Binding Assay: FLT3(DKIN): + + + +
[2]
  Cell Assay: CS0001:IC50: + + +

## CC1CN(CCOc2ccc(NC(=O)Nc3cc(C(C)(C)C)on3)cc2)CCN1 (stereo not drawn) [Compound G46]
[1]
  Binding Assay: FLT3(DKIN): + +
[2]
  Cell Assay: CS0001:IC50: + +

## Cn1cc(C(=O)Nc2ccc(NC(=O)Nc3cc(C(C)(C)C)on3)cc2)c(C(F)(F)F)n1 [Compound N20]
[1]
  Binding Assay: FLT3(DKIN): + + + +
[2]
  Cell Assay: CS0001:IC50: + + +

## Cn1nc(-c2ccccc2)c(C(=O)Nc2ccc(NC(=O)Nc3cc(C(C)(C)C)on3)cc2)c1Cl [Compound N11]
[1]
  Binding Assay: FLT3(DKIN): + +
[2]
  Cell Assay: CS0001:IC50: + +

## CC(C)(C)c1cc(NC(=O)Nc2ccc(C(=O)Nc3ccc(Cl)cc3)cc2)no1 [Compound N156]
[1]
  Binding Assay: FLT3(DKIN): + + + +
[2]
  Cell Assay: CS0001:IC50: + + +

## COc1ccc(NC(=O)Nc2cc(C(F)(F)F)cc(Cl)n2)cc1 [Compound Z71]
[1]
  Binding Assay: FLT3(DKIN): + + + +
[2]
  Cell Assay: CS0001:IC50: + + +

## CC(C)(C)c1cc(NC(=O)Nc2ccc(NC(=O)C(N)Cc3ccccc3F)cc2)no1 (stereo not drawn) [Compound N42]
[1]
  Binding Assay: FLT3(DKIN): + + +
[2]
  Cell Assay: CS0001:IC50: + +

## CC(=O)c1c(NC(=O)Nc2ccc(Cl)c(Cl)c2)sc2c1CCCC2 [Compound Z56]
[1]
  Kd: > 10 µM
[2]
  Cell Assay: CS0001:IC50: + + +

## CC(C)(C)c1cc(NC(=O)Nc2ccc(NC(=O)c3ccc4cccnc4n3)cc2)no1 [Compound N144]
[1]
  Binding Assay: FLT3(DKIN): + + + +
[2]
  Cell Assay: CS0001:IC50: + + +

## CC(C)(C)c1cc(NC(=O)Nc2ccc(OCc3ccc(F)cc3Cl)cc2)no1 [Compound G18]
[1]
  Binding Assay: FLT3(DKIN): + + + +
[2]
  Cell Assay: CS0001:IC50: + + +

## CC(C)(C)c1csc(NC(=O)Nc2ccc(OCc3ccccc3)cc2)n1 [Compound G49]
[1]
  Binding Assay: FLT3(DKIN): + +
[2]
  Cell Assay: CS0001:IC50: + + +

## Cc1noc(-c2ccc(NC(=O)Nc3cc(C(C)(C)C)on3)cc2)n1 [Compound P9]
[1]
  Binding Assay: FLT3(DKIN): + + + +
[2]
  Cell Assay: CS0001:IC50: + + +

## CC(C)(C)c1cc(NC(=O)Nc2ccc(OCc3ccccc3C(F)(F)F)cc2)no1 [Compound G4]
[1]
  Binding Assay: FLT3(DKIN): + + +
[2]
  Cell Assay: CS0001:IC50: + +

## CC(C)c1nnsc1C(=O)Nc1ccc(NC(=O)Nc2cc(C(C)(C)C)on2)cc1 [Compound N182]
[1]
  Binding Assay: FLT3(JMminus): + + +
[2]
  Cell Assay: CS0001:IC50: + +

## COc1cc(NC(=O)c2cn3nc(Cl)ccc3n2)ccc1NC(=O)Nc1cc(C(C)(C)C)on1 [Compound N171]
[1]
  Binding Assay: FLT3(JMminus): + +
[2]
  Cell Assay: CS0001:IC50: + + +

## CC(C)(C)c1cc(NC(=O)Nc2ccc(NC(=O)c3ncc[nH]3)cc2)no1 [Compound N13]
[1]
  Binding Assay: FLT3(DKIN): + + + +
[2]
  Cell Assay: CS0001:IC50: + + + +

## CC(C)(C)c1cc(NC(=O)Nc2ccc(C(=O)Nc3ccc(F)cc3F)cc2)no1 [Compound N153]
[1]
  Binding Assay: FLT3(DKIN): + + + +
[2]
  Cell Assay: CS0001:IC50: + + +

## CC(C)(C)c1cc(NC(=O)Nc2ccc(NC(=O)c3cnc4ccccc4n3)cc2)no1 [Compound N149]
[1]
  Binding Assay: FLT3(DKIN): + + +
[2]
  Cell Assay: CS0001:IC50: + +

## CC(C)(C)OC(=O)Nc1ccc(NC(=O)Nc2cc(C(C)(C)C)on2)cc1 [Compound N101]
[1]
  Binding Assay: FLT3(DKIN): + + + +
[2]
  Cell Assay: CS0001:IC50: + + +

## Cc1ccc(COc2ccc(NC(=O)Nc3cc(C(C)(C)C)on3)cc2)cc1 [Compound G15]
[1]
  Binding Assay: FLT3(DKIN): + + + +
[2]
  Cell Assay: CS0001:IC50: + + + +

## CC(C)(C)c1cc(NC(=O)Nc2ccc(C(=O)Nc3ccccc3)cc2)no1 [Compound N90]
[1]
  Binding Assay: FLT3(DKIN): + + + +
[2]
  Cell Assay: CS0001:IC50: + + +

## CC(C)(C)c1cc(NC(=O)Nc2ccc(NC(=O)c3ccccc3O)cc2)no1 [Compound N69]
[1]
  Binding Assay: FLT3(JMminus): + +
[2]
  Cell Assay: CS0001:IC50: + + +

## CC(C)(C)c1cc(NC(=O)Nc2ccc(NC(=O)c3c[nH]c(=O)nc3-c3ccncc3)cc2)no1 [Compound N19]
[1]
  Binding Assay: FLT3(DKIN): + +
[2]
  Cell Assay: CS0001:IC50: + +

## CC(C)(C)c1cc(NC(=O)Nc2ccc(NC(=O)c3nnsc3Sc3ccc(Cl)cc3)cc2)no1 [Compound N71]
[1]
  Binding Assay: FLT3(JMminus): + + +
[2]
  Cell Assay: CS0001:IC50: + +

## Cc1sc(NC(=O)Nc2ccc(Cl)cc2)c(C(N)=O)c1C [Compound Z58]
[1]
  Kd: > 10 µM
[2]
  Cell Assay: CS0001:IC50: + +

## COc1cc(OC)nc(Oc2cccnc2C(=O)Nc2ccc(NC(=O)Nc3cc(C(C)(C)C)on3)cc2)n1 [Compound N56]
[1]
  Binding Assay: FLT3(DKIN): + + + +
[2]
  Cell Assay: CS0001:IC50: + + +

## CC(C)(C)c1cc(NC(=O)Nc2ccc3cc4ccccc4cc3c2)no1 [Compound A18]
[1]
  Binding Assay: FLT3(DKIN): + + +

— patent US20050267182A1, “Urea derivatives as FLT-3 modulators” (Ambit Biosciences Corporation, priority 2003, published 2005)
